Data taken from ChEMBL document CHEMBL3526094, “Methadone N-demethylation by the common CYP2B6 allelic variant CYP2B6.6” (Drug Metab Dispos, 2013).

What was measured:
Type in all cases: ADME
Conditions in all cases: human, recombinant enzyme
[1] = Drug metabolism assessed as recombinant CYP2B6.6 (unknown origin) expressed in insect cell microsomes-mediated R-2-ethyl-1,5-dimethyl-3,3-diphenylpyrrolidine formation at 0.25 to 2 uM after 10 mins high-pressure liquid chromatography analysis
[2] = Drug metabolism assessed as recombinant CYP2B6.1 (unknown origin) expressed in insect cell microsomes-mediated R-2-ethyl-1,5-dimethyl-3,3-diphenylpyrrolidine formation at 0.25 to 2 uM after 10 mins high-pressure liquid chromatography analysis
[3] = Drug metabolism assessed as recombinant CYP2B6.1 (unknown origin) expressed in insect cell microsomes-mediated S-2-ethyl-1,5-dimethyl-3,3-diphenylpyrrolidine formation at 0.25 to 2 uM after 10 mins high-pressure liquid chromatography analysis
[4] = Drug metabolism assessed as recombinant CYP2B6.6 (unknown origin) expressed in insect cell microsomes-mediated S-2-ethyl-1,5-dimethyl-3,3-diphenylpyrrolidine formation at 0.25 to 2 uM after 10 mins high-pressure liquid chromatography analysis

SMILES: CCC(=O)C(CC(C)N(C)C)(c1ccccc1)c1ccccc1 (racemic) [METHADONE]
- Ks [1]: 57 µM
- Ks [2]: 40 µM
- Ks [3]: 13 µM
- Ks [4]: 20 µM

SMILES: CCC(=O)C(CC(C)N(C)C)(c1ccccc1)c1ccccc1 (stereo in doubt) [METHADONE]
- Ks [1]: 97 µM
- Ks [2]: 75 µM
- Ks [3]: 25 µM
- Ks [4]: 40 µM
